Experimental data reported in patent US20090142766A1, “METHODS FOR MEASURING THE METABOLISM OF CNS DERIVED BIOMOLECULES IN VIVO” (Washington University in St. Louis, priority 2007, published 2009).

Key:
[1] = Aβ fractional synthesis and clearance rate in CSF (immunoprecipitation-MS/MS after ^13C6-leucine labeling); assay type: in vivo, human; conditions: 6 healthy young participants
Excerpt: Protein production and clearance are important parameters that are tightly regulated and reflect normal physiology as well as disease states. Previous studies of protein metabolism in humans have focused on whole body or peripheral body proteins, but not on proteins produced in the central nervous system (CNS). No methods were previously available to quantify protein production or clearance rates in the CNS of humans. Such a method would be valuable to assess not only Aβ production or clearance rates in humans but also the metabolism of a variety other proteins relevant to diseases of the CNS. In order to address critical questions about underlying AD pathogenesis and Aβ metabolism, a method for quantifying Aβ fractional synthesis rate (FSR) and fractional clearance rate (FCR) in vivo in the CNS of humans was developed.
For each sample of CSF collected, the ratio of labeled to unlabeled Aβ was determined by immunoprecipitation-MS/MS, as described above. […]
The fractional synthesis rate (FSR) was calculated using the standard formula, presented below: […]
The fractional clearance rate (FCR) was calculated by fitting the slope of the natural logarithm of the clearance portion of the labeled Aβ curve, according to the following formula: […]

[2] = Aβ clearance in cortex of APPswe/PS1deltaE9 double transgenic mice; assay type: in vivo; conditions: cortex, 3, 6 and 18 hr after ^13C6-leucine 200 μg/g i.p.
Protocol: To measure the brain Aβ clearance rate in mice, the method developed to assess ApoE clearance described above in Example 4 was performed in APPswe/PS1deltaE9 double transgenic mice (line #85; Jackson Labs, Bar Harbor, Me.). After a bolus intraperitioneal injection of ^13C6-leucine (200 μg/g), cortical brain tissue was harvested at 3, 6, and 18 hr post-injection (n=3) and lysed (lysis buffer, 1% Triton with PBS). Aβ was immunoprecipitated with an Aβ monoclonal antibody (HJ5.2, directed to Aβ 13-28) and then analyzed by nano-LC-MS/MS as described above. […] The clearance rate of soluble Aβ from cortex of transgenic mice was very similar with that of Aβ from human CSF as described by Bateman et al. 2006, supra.

[3] = cited from earlier work

Which results are given for “Aβ: endogenous amyloid-beta peptide (SEQ ID NO:1) produced in the CNS from amyloid precursor protein”?
average fractional clearance rate (FCR) ([1]; 24 to 36 hours): 8.3 %/hr; average fractional synthesis rate (FSR) ([1]; slope 6 to 15 hours): 7.6 %/hr; fractional clearance rate (FCR) of soluble cortical Aβ [2]: 7.62±1.25 % per hour; t1/2 in brain interstitial fluid [3]: 1 to 2 h
